Results published in US20060167229A1, “Biologically active peptide conjugates” (priority 2002, published 2006).
Entries after “also recorded” stand apart in the source; their conditions may differ. Marks after values point to notes of the source that are not given here. Ends that are not written are not given here.

Experiments:
Type in all cases: in vivo, BALB/c mice
[1] = tested on: NK cell; test: NK cell cytotoxicity activity test (spleen cells of treated mice against YAC-1 target cells, MTT); settings: for NK cell cytotoxic activity, X ± SD (%): healthy mice; for effect on the cytotoxic activity of NK cells (summary): statistically significant difference from saline in any of the dosage groups 0.5-500 μg/kg/day
Outline: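 YAC-1 target cells (1×10^5/ml) mixed with splenocytes (4×10^6/ml) from mice given test substances i.p. daily for 15 days (10 mice/group). Effector-only and target-only wells served as controls. MTT added at 1 mg/ml for 4 h at 37 °C; absorbance read at 570/630 nm.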

[2] = tested on: anti-SRBC antibody; test: Sheep Red Blood Cell (SRBC) hemolysis test, antibody formation; settings: for anti-SRBC antibody formation, X ± SD (Unit): healthy mice, SRBC day 12 (IFN-γ, IL-2 3×10^5 IU/kg/day), saline 32 ± 7; for effect on the synthesis of anti-SRBC antibody upon the antigenic challenge (summary): statistically significant difference from saline in any of the dosage groups 0.5-500 μg/kg/day
Outline: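 Antibody formation was read as haemolysis: 500-fold diluted serum, collected on day 16 after intraperitoneal SRBC (0.2 ml, day 12), was mixed with 2% SRBC plus complement for 10 min at 37° C. Supernatant haemoglobin measured with Drabkin reagent at OD540, indexed against a reference SRBC lysate ×500.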

[3] = tested on: mononuclear phagocyte; test: Carbon particle clearance test, phagocytosis function; design: key to X ± SD (phagocytotic index): α = cube root of K × (body weight ÷ liver+spleen weight); settings: for X ± SD (phagocytotic index): healthy mice, saline 5.1 ± 0.6; for effect on the phagocytotic activity of mononuclear phagocyte (summary): statistically significant difference from saline in any of the dosage groups 0.5-500 μg/kg/day
Outline: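 Clearance index K came from OD680 of blood sampled 1 and 5 min after tail-vein India ink ([…], diluted 5×), given on day 16. Phagocytic index α combined K with liver, spleen […] weights taken the same day.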

[4] = tested on: spleen; test: Immunity organ weight test, spleen index; settings: for weight of spleen (spleen index), X ± SD (%): healthy mice, saline 0.53 ± 0.05; for effect on the weight of the spleen (summary): statistically significant difference from saline in any of the dosage groups 0.5-500 μg/kg/day
Description: (§1) One day after the last test substance administration (day 16), the liver, spleen, and thymus gland were separated and blotted dry with filter paper and weighed. The phagocytosis index α was calculated as below: α=(^3√{square root over ( )}K)(W÷WLS)
Spleen index (%)=(spleen weight/body weight)×100%

[5] = tested on: thymus gland; test: Immunity organ weight test, thymus gland index; settings: for weight of thymus gland (thymus gland index), X ± SD (%): healthy mice, saline 0.12 ± 0.02; for effect on the weight of the thymus gland (summary): statistically significant difference from saline in any of the dosage groups 0.5-500 μg/kg/day
Description: as §1
Thymus gland index (%)=(thymus weight/body weight)×100%

[6] = peptide 50 μg/kg/day i.p. 15 days (IFN-γ, IL-2 3×10^5 IU/kg/day), saline 56 ± 8
[7] = peptide 0.5 μg/kg/day i.p. 15 days
[8] = peptide 5 μg/kg/day i.p. 15 days
[9] = peptide 50 μg/kg/day i.p. 15 days
[10] = peptide 500 μg/kg/day i.p. 15 days
[11] = peptide 5 μg/kg/day i.p. 15 days (IFN-γ, IL-2 3×10^5 IU/kg/day)
[12] = peptide 500 μg/kg/day i.p. 15 days (IFN-γ, IL-2 3×10^5 IU/kg/day)
[13] = peptide 500 μg/kg/day i.p. 15 days (IFN-γ, IL-2 3×10^5 IU/kg/day), saline 63 ± 9
[14] = peptide 50 μg/kg/day i.p. 15 days (IFN-γ, IL-2 3×10^5 IU/kg/day)
[15] = peptide 0.5 μg/kg/day i.p. 15 days (IFN-γ, IL-2 3×10^5 IU/kg/day), saline 58 ± 7
[16] = peptide 5 μg/kg/day i.p. 15 days (IFN-γ, IL-2 3×10^5 IU/kg/day), saline 60 ± 9
[17] = peptide 0.5 μg/kg/day i.p. 15 days (IFN-γ, IL-2 3×10^5 IU/kg/day)

Row | Substance | NK cell cytotoxic activity, X ± SD (%) [1, 6] [%] | effect on the cytotoxic activity of NK cells (summary) [1] | anti-SRBC antibody formation, X ± SD (Unit) [2, 7] [Unit] | anti-SRBC antibody formation, X ± SD (Unit) [2, 8] | anti-SRBC antibody formation, X ± SD (Unit) [2, 9] | anti-SRBC antibody formation, X ± SD (Unit) [2, 10] | X ± SD (phagocytotic index) [3, 11] | effect on the phagocytotic activity of mononuclear phagocyte (summary) [3] | weight of spleen (spleen index), X ± SD (%) [4, 10] [%] | effect on the weight of the spleen (summary) [4] | NK cell cytotoxic activity, X ± SD (%) [1, 13] | effect on the synthesis of anti-SRBC antibody upon the antigenic challenge (summary) [2] | weight of thymus gland (thymus gland index), X ± SD (%) [5, 11] | weight of thymus gland (thymus gland index), X ± SD (%) [5, 14] | weight of thymus gland (thymus gland index), X ± SD (%) [5, 12] | effect on the weight of the thymus gland (summary) [5] | other results
1 | FNFVPP [CMS003] | 85 ± 6 | increase | 2 ± 1 | 91 ± 24*^@ Unit | 52 ± 11 Unit | 96 ± 18*^@ Unit | 6.9 ± 0.9*^ | enhance | 0.40 ± 0.04 | decrease | – | – | – | – | – | – | X ± SD (phagocytotic index) [3, 12]: 6.6 ± 0.7
2 | IGMESAGIHETTY [CMS016] | – | increase | – | 93 ± 32*^@ Unit | – | 143 ± 38*^@^ Unit | 6.9 ± 0.8*^ | enhance | – | – | 91 ± 7*^@^ % | enhance | 0.22 ± 0.06 % | 0.20 ± 0.03*^@^ % | 0.18 ± 0.05 % | increase | –
3 | LGMQACGIHETTY [CMS012] | 40 ± 9 | – | – | 81 ± 22*^@ Unit | 50 ± 14 Unit | 141 ± 21*^@^ Unit | – | – | – | – | – | enhance | 0.27 ± 0.06*^@^ % | 0.26 ± 0.02*^@^ % | – | increase | NK cell cytotoxic activity, X ± SD (%) [1, 15]: 77 ± 6 %; NK cell cytotoxic activity, X ± SD (%) [1, 16]: 85 ± 7 %; weight of thymus gland (thymus gland index), X ± SD (%) [5, 17]: 0.22 ± 0.06*^ %
4 | LRVAPQQHPTL [CMS009] | – | increase | 2 ± 1 | 79 ± 18*^@ Unit | 13 ± 5 Unit | 113 ± 22*^@^ Unit | 6.9 ± 0.9*^ | enhance | 0.41 ± 0.03 | decrease | – | – | – | – | – | – | NK cell cytotoxic activity, X ± SD (%) [1, 16]: 92 ± 6*^@^ %
5 | PTTKTYFPHF [CMS001] | 85 ± 10 | increase | – | 110 ± 24*^@ Unit | – | – | – | – | 0.43 ± 0.07 | decrease | – | enhance | 0.22 ± 0.05 % | – | – | increase | weight of spleen (spleen index), X ± SD (%) [4, 17]: 0.40 ± 0.05 %
6 | Phe Gln Gln Gln (FQQQ; printed: Phe Gln Gln Gln) [CMS032] | – | increase | – | 157 ± 37*^@^ Unit | 131 ± 24*^@^ Unit | – | – | – | – | – | 87 ± 5 % | enhance | 0.29 ± 0.04*^@^ % | 0.27 ± 0.03*^@^ % | 0.25 ± 0.03*^@^ % | increase | weight of thymus gland (thymus gland index), X ± SD (%) [5, 17]: 0.21 ± 0.06 %
7 | Phe Val Asn Asp (FVND; listed as Sus scrofa) [CMS035] | 72 ± 9 | increase | – | 176 ± 39*^@^ Unit | 97 ± 10*^@^ Unit | 88 ± 16*^@ Unit | 6.9 ± 0.9*^ | enhance | – | – | 90 ± 10 % | enhance | 0.21 ± 0.04 % | – | 0.21 ± 0.03*^@^ % | increase | NK cell cytotoxic activity, X ± SD (%) [1, 15]: 76 ± 10 %
8 | Pro Gln Asn Phe (PQNF; printed: Pro Gln Asn Phe) [CMS034] | – | increase | 20 ± 2 | 172 ± 37*^@^ Unit | 136 ± 11*^@^ Unit | – | – | – | – | – | 85 ± 9 % | enhance; also recorded: inhibit | 0.27 ± 0.06*^@^ % | 0.19 ± 0.04*^ % | 0.20 ± 0.05*^ % | increase | NK cell cytotoxic activity, X ± SD (%) [1, 16]: 90 ± 5 %
9 | Pro Ser Ile Vat Gly Arg Pro Arg His Gln Gly Val Met (PSIVGRPRHQGVM; listed as Sus scrofa) [CMS015] | 78 ± 8 | increase | 13 ± 4 | 94 ± 37*^@ Unit | 54 ± 9*^@ Unit | 136 ± 22*^@^ Unit | – | – | 0.36 ± 0.07 | decrease | – | enhance; also recorded: inhibit | 0.20 ± 0.08 % | – | – | increase | weight of spleen (spleen index), X ± SD (%) ([4]; Table 30, peptide 5 μg/kg/day i.p. 15 days): 0.38 ± 0.15 %
10 | Tyr Ser Phe (YSF; listed as Sus scrofa) [CMS022] | – | increase | – | – | 110 ± 16*^@^ Unit | 68 ± 31*^@ Unit | – | enhance | – | – | – | enhance | 0.25 ± 0.04*^@^ % | 0.30 ± 0.03*^@^ % | 0.26 ± 0.05*^@^ % | increase | NK cell cytotoxic activity, X ± SD (%) [1, 15]: 73 ± 11 %; X ± SD (phagocytotic index) [3, 12]: 7.4 ± 0.6*^@^; weight of thymus gland (thymus gland index), X ± SD (%) [5, 17]: 0.21 ± 0.06 %
11 | VGMGQKDSY | – | – | 12 ± 3 | 118 ± 20*^@^ Unit | – | 91 ± 26*^@ Unit | 6.8 ± 0.6*^ | enhance | 0.63 ± 0.08 | increase | – | – | 0.24 ± 0.02*^@^ % | 0.20 ± 0.03*^@^ % | 0.19 ± 0.02 % | increase | X ± SD (phagocytotic index) [3, 14]: 6.7 ± 0.9*^
